Laboratory results from patent US9233929B2, “Fungicide N-cycloalkyl-N-bicyclimethylene-carboxamide derivatives” (priority 2009, dated 2016).

Assay: logP
Assay type: physicochemical

SMILES | logP
Cc1nn(C)c(F)c1C(=S)N(C1CC1)C(C)C1CCCc2ccccc21 (centres unmarked) [I.3, N-cyclopropyl-5-fluoro-1,3-dimethyl-N-[1-(1,2,3,4-tetrahydronaphthalen-1-yl)ethyl]-1H-pyrazole-4-carbothioamide] | 4.39
CC(N(C(=O)c1cn(C)nc1C(F)F)C1CC1)C1(O)CCCc2ccccc21 (centres unmarked) [I.10, N-cyclopropyl-3-(difluoromethyl)-N-[1-(1-hydroxy-1,2,3,4-tetrahydronaphthalen-1-yl)ethyl]-1-methyl-1H-pyrazole-4-carboxamide] | 2.94
